Earlier results, collected in paper PMC5447021, “TNF Lectin-Like Domain Restores Epithelial Sodium Channel Function in Frameshift Mutants Associated with Pseudohypoaldosteronism Type 1B” (Frontiers in Immunology, 2017).

Molecular target: T1, αβγ-hENaC (Homo sapiens, UniProt P37088+P51168+P51170)
T1 construct: expressed in transfected cells; host or cells: HEK-293
T1 sequence (P37088 1-669): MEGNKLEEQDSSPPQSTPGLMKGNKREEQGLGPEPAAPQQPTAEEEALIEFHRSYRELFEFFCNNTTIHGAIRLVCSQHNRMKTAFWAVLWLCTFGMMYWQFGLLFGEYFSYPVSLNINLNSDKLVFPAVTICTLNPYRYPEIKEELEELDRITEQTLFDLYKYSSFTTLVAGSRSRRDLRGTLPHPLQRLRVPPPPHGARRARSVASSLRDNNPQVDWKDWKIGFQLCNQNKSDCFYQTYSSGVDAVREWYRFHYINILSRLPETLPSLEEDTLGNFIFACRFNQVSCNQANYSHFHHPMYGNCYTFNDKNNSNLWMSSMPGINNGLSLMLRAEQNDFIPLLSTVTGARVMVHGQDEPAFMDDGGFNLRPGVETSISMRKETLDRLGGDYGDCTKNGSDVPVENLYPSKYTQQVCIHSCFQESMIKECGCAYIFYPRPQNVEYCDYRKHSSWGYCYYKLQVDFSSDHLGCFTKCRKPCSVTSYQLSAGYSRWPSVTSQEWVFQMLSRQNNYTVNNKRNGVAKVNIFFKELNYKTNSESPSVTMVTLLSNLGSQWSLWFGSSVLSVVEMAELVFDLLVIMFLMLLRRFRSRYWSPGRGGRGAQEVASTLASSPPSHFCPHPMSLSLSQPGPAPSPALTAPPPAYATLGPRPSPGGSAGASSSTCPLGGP
T1 sequence (P51168 1-640 partner): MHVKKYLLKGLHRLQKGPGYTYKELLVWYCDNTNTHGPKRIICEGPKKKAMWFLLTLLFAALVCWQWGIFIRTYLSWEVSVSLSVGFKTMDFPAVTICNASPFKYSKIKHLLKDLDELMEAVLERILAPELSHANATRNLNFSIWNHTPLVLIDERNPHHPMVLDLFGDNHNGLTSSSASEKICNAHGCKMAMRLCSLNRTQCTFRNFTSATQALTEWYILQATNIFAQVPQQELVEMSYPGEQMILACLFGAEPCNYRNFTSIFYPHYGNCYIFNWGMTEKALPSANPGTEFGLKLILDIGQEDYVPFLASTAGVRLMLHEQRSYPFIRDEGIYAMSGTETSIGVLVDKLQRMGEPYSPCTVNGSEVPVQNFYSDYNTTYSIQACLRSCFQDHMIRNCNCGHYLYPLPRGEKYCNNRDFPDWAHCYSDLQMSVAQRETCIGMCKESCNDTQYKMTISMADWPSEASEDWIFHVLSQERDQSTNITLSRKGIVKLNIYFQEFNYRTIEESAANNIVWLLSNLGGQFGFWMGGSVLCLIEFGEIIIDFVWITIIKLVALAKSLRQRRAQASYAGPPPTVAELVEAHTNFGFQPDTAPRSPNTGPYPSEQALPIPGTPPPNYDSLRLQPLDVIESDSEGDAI
T1 sequence (P51170 1-649 partner): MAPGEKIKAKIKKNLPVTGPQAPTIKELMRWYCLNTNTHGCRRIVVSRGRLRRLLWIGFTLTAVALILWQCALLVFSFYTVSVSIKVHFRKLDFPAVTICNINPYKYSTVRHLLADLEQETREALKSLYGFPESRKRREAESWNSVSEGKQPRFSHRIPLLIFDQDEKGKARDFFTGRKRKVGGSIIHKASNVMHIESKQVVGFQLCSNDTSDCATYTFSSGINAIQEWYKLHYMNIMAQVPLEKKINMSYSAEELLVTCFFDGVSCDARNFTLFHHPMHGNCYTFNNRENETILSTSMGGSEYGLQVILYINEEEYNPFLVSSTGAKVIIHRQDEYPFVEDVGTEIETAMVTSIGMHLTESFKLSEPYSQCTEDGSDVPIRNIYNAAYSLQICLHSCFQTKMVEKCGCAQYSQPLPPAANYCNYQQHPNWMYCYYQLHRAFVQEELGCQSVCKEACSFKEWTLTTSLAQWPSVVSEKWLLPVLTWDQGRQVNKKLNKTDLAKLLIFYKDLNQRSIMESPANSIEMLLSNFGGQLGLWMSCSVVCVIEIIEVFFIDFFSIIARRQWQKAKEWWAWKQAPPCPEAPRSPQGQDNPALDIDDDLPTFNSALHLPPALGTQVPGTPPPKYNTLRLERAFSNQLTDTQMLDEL
Set-up: method as in 2 sources, ref 16 = [16]; PMID 24077967; doi:10.1124/mol.113.089409; 16 Shabbir W Scherbaum-Hazemi P Tzotzos S Fischer B Fischer H Pietschmann H Mechanism of action of novel lung edema therapeutic AP301 by activation of the epithelial sodium channel . Mol Pharmacol ( 2 ||| ref 24 = [24]; PMID 20979368; doi:10.1021/jm100767p; 24 Hazemi P Tzotzos SJ Fischer B Andavan GS Fischer H Pietschmann H Essential structural features of TNF-α lectin-like domain derived peptides for activation of amiloride-sensitive sodium current in A
Settings: αβγ-hENaC in HEK-293, whole-cell, -100 mV, amiloride-sensitive control current 75.8 ± 4.5 pA, mean ± S.E.; cited from earlier work

## C[C@@H]1NC(=O)CNC(=O)[C@H](CCC(=O)O)NC(=O)[C@@H]2CCCN2C(=O)[C@H]([C@@H](C)O)NC(=O)[C@H](CCC(=O)O)NC(=O)[C@H](CCCNC(=N)N)NC(=O)[C@H](CCC(N)=O)NC(=O)CNC(=O)[C@@H](N)CSSC[C@@H](C(=O)O)NC(=O)[C@H](Cc2ccc(O)cc2)NC(=O)[C@H](Cc2c[nH]c3ccccc23)NC(=O)[C@@H]2CCCN2C(=O)[C@H](CCCCN)NC(=O)[C@H](C)NC(=O)[C@H](CCC(=O)O)NC1=O [solnatide, L-cysteine, L-cysteinylglycyl-L-glutaminyl-L-arginyl-L-α-glutamyl-L-threonyl-L-prolyl-L-α-glutamylglycyl-L-alanyl-L-α-glutamyl-L-alanyl-L-lysyl-L-prolyl-L-tryptophyl-L-tyrosyl-, cyclic (1→17)-disulfide]
  Maximal induced current, solnatide: 953.2 ± 11.5 pA
